Laboratory results taken from patent US8859611B2, “Thiophene inhibitors of S-nitrosoglutathione reductase” (N30 Pharmaceuticals, Inc., priority 2009, dated 2014).

Molecular target: T1, GSNOR (Homo sapiens, UniProt P11766)
T1 construct: made in house; host or cells: E. coli (arabinose-induced)
Test: GSNOR assay (in vitro inhibition of GSNOR activity, NADH absorbance at 340 nm)
Assay type: biochemical
Conditions: 100 mM NaPO4 pH 7.4, 0.240 mM GSNO, 0.300 mM NADH, 0.5 μg/mL GSNO Reductase, 1% DMSO, 25° C.; read-out: IC50 (GSNOR inhibitor activity)
Protocol: Various compounds were tested in vitro for their ability to inhibit GSNOR activity.
GSNOR expression and purification is described in Biochemistry 2000, 39, 10720-10729.
Pre-cultures were grown from stabs of a GSNOR glycerol stock in 2XYT media containing 100 ug/ml ampicillin after an overnight incubation at 37° C. Cells were then added to fresh 2XYT (4 L) containing ampicillin and grown to an OD (A600) of 0.6-0.9 at 37° C. before induction. GSNOR expression was induced with 0.1% arabinose in an overnight incubation at 20° C.
E. coli cell paste was lysed by nitrogen cavitation and the clarified lysate purified by Ni affinity chromatography on an AKTA FPLC (Amersham Pharmacia). The column was eluted in 20 mM Tris pH 8.0/250 mM NaCl with a 0-500 mM imidazole gradient. Eluted GSNOR fractions containing the Smt-GSNOR fusion were digested overnight with Ulp-1 at 4° C. to remove the affinity tag then re-run on the Ni column under the same conditions. GSNOR was recovered in the flowthrough fraction and for crystallography is further purified by Q-Sepharose and Heparin flowthrough chromatography in 20 mM Tris pH 8.0, 1 mM DTT, 10 uM ZnSO4.
GSNO and enzyme/NADH Solutions are made up fresh each day. The solutions are filtered and allowed to warm to room temperature. GSNO solution: 100 mM NaPO4 (pH 7.4), 0.480 mM GSNO. 396 μL of GSNO Solution is added to a cuvette followed by 8 μL of test compound in DMSO (or DMSO only for full reaction control) and mixed with the pipette tip. Compounds to be tested are made up at a stock concentration of 10 mM in 100% DMSO. 2 fold serial dilutions are done in 100% DMSO. 8 μL of each dilution are added to an assay so that the final concentration of DMSO in the assay is 1%. The concentrations of compounds tested range from 100 to 0.003 μM. Enzyme/NADH solution: 100 mM NaPO4 (pH 7.4), 0.600 mM NADH, 1.0 μg/mL GSNO Reductase. 396 μL of the Enzyme/NADH solution is added to the cuvette to start the reaction. The cuvette is placed in the Cary 3E UV/Visible Spectrophotometer and the change in 340 nm absorbance/min at 25° C. is recorded for 3 minutes. The assays are done in triplicate for each compound concentration. IC50's for each compound are calculated using the standard curve analysis in the Enzyme Kinetics Module of SigmaPlot.
Final assay conditions: 100 mM NaPO4, pH 7.4, 0.240 mM GSNO, 0.300 mM NADH, 0.5 μg/mL GSNO Reductase, and 1% DMSO. Final volume: 800 μL/cuvette.

T1 sequence (P11766 whole entry): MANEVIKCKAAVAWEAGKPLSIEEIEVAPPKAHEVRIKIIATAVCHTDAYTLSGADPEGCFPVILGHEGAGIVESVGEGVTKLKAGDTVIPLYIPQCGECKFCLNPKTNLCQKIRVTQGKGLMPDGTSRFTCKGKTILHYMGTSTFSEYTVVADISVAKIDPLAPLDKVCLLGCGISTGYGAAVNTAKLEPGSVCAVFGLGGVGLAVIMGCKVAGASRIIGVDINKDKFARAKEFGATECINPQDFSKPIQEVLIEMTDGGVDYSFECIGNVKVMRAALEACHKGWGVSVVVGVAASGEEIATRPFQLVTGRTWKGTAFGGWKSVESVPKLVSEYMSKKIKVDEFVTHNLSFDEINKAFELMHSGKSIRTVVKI

| SMILES | IC50 [nM] |
| --- | --- |
| Cc1cc(NS(C)(=O)=O)ccc1-c1c(-c2ccc(-n3ccnc3C)cc2)csc1CCC(=O)O [Example 9, 3-(4-(4-(2-methyl-1H-imidazol-1-yl)phenyl)-3-(2-methyl-4-(methylsulfonamido)phenyl)thiophen-2-yl)propanoic acid] | < 1000 |
| Cc1cc(C(N)=O)ccc1-c1c(-c2ccc(-n3ccnc3C)s2)csc1CCC(=O)O [Example 11, 3-(4′-(4-carbamoyl-2-methylphenyl)-5-(2-methyl-1H-imidazol-1-yl)-2,3′-bithiophen-5′-yl)propanoic acid] | < 1000 |
| Cc1cc(NS(C)(=O)=O)ccc1-c1c(-c2ccc(-n3ccnc3C)s2)csc1CCC(=O)O [Example 12, 3-(5-(2-methyl-1H-imidazol-1-yl)-4′-(2-methyl-4-(methylsulfonamido)phenyl)-2,3′-bithiophen-5′-yl)propanoic acid] | < 1000 |
| Cc1cc(C(N)=O)ccc1-c1c(-c2ccc(Br)cc2)csc1CCC(=O)O [Example 13, 3-(4-(4-bromophenyl)-3-(4-carbamoyl-2-methylphenyl)thiophen-2-yl)propanoic acid] | < 1000 |
| COc1ccc(-c2scc(CCC(=O)O)c2-c2ccc(C(N)=O)cc2C)cc1 [Example 14, 3-(4-(4-carbamoyl-2-methylphenyl)-5-(4-methoxyphenyl)thiophen-3-yl)propanoic acid] | < 1000 |

Second part, the compound after the results:

| IC50 [nM] | SMILES |
| --- | --- |
| < 1000 | COc1ccc(-c2csc(CCC(=O)O)c2-c2ccc(C(N)=O)cc2C)cc1 [Example 1, 3-(3-(4-carbamoyl-2-methylphenyl)-4-(4-methoxyphenyl)thiophen-2-yl)propanoic acid] |
| < 1000 | COc1cc(Cl)ccc1-c1csc(CCC(=O)O)c1-c1ccc(C(N)=O)cc1 [Example 2, 3-(3-(4-carbamoylphenyl)-4-(4-chloro-2-methoxyphenyl)thiophen-2-yl)propanoic acid] |
| < 1000 | COc1cc(Cl)ccc1-c1csc(CCC(=O)O)c1-c1ccc(O)cc1 [Example 4, 3-(4-(4-chloro-2-methoxyphenyl)-3-(4-hydroxyphenyl)thiophen-2-yl)propanoic acid] |
| < 1000 | Cc1cc(C(N)=O)ccc1-c1c(-c2ccc(-n3ccnc3C)cc2)csc1CCC(=O)O [Example 7, 3-(3-(4-carbamoyl-2-methylphenyl)-4-(4-(2-methyl-1H-imidazol-1-yl)phenyl)thiophen-2-yl)propanoic acid] |
| < 1000 | Cc1nccn1-c1ccc(-c2csc(CCC(=O)O)c2-c2ccc(C(N)=O)cc2)cc1 [Example 8, 3-(3-(4-carbamoylphenyl)-4-(4-(2-methyl-1H-imidazol-1-yl)phenyl)thiophen-2-yl)propanoic acid] |
